{"source": "patent US20020137154A1", "about": "“Methods for improving cell growth and alcohol production during fermentation” (priority 2000, published 2002)", "system": "recombinant Escherichia coli KO11", "experiment": "Batch fermentation of E. coli KO11 in 1% CSL medium and glucose with nutrient additives: ethanol production and cell growth", "assay_type": "cell-based", "conditions": "for Ethanol Production Maximum / Ethanol yield / Initial Growth (OD @ 24 h) OD / Maximum Cell Density OD / Volumetric Productivity Average / Volumetric Productivity Maximum: 1% CSL+glucose; for activity at 500 µg/mL / activity at 250 µg/mL / activity at 750 µg/mL: Escherichia coli", "note": "Read-outs that look alike come from different tables or passages of the source."}
{"smiles": "CC=O", "note": "[Acetaldehyde, acetaldehyde]", "values": [{"measurement": "initial growth and maximum cell density as compared to a control", "setting": "1% CSL and glucose, 0.25 g/L at the start", "result": "greatest initial growth and maximum cell density"}, {"measurement": "ethanol production as compared to the control", "setting": "1% CSL and glucose, 0.75 g/L at the start", "result": "highest amount of ethanol production"}, {"measurement": "Ethanol Production Maximum", "setting": "0.25 g/L at start", "result": 40.31, "unit": "g/L"}, {"measurement": "Ethanol yield", "setting": "0.25 g/L at start", "result": "0.415 grams of ethanol/grams of added sugar"}, {"measurement": "Initial Growth (OD @ 24 h) OD", "setting": "0.25 g/L at start", "result": 3.00, "unit": "OD"}, {"measurement": "Maximum Cell Density OD", "setting": "0.25 g/L at start", "result": 3.17, "unit": "OD"}, {"measurement": "Volumetric Productivity Average", "setting": "0.25 g/L at start", "result": "0.560 grams ethanol/(liter)(hour)"}, {"measurement": "Volumetric Productivity Maximum", "setting": "0.25 g/L at start", "result": "0.678 grams ethanol/(liter)(hour)"}, {"measurement": "Ethanol Production Maximum", "setting": "0.5 + 0.25 g/L (start, 8 h)", "result": 40.25, "unit": "g/L"}, {"measurement": "Ethanol yield", "setting": "0.5 + 0.25 g/L (start, 8 h)", "result": "0.414 grams of ethanol/grams of added sugar"}, {"measurement": "Initial Growth (OD @ 24 h) OD", "setting": "0.5 + 0.25 g/L (start, 8 h)", "result": 2.64, "unit": "OD"}, {"measurement": "Maximum Cell Density OD", "setting": "0.5 + 0.25 g/L (start, 8 h)", "result": 2.99, "unit": "OD"}, {"measurement": "Volumetric Productivity Average", "setting": "0.5 + 0.25 g/L (start, 8 h)", "result": "0.419 grams ethanol/(liter)(hour)"}, {"measurement": "Volumetric Productivity Maximum", "setting": "0.5 + 0.25 g/L (start, 8 h)", "result": "0.598 grams ethanol/(liter)(hour)"}, {"measurement": "Ethanol Production Maximum", "setting": "0.5 + 0.5 g/L (start, 8 h)", "result": 40.03, "unit": "g/L"}, {"measurement": "Ethanol yield", "setting": "0.5 + 0.5 g/L (start, 8 h)", "result": "0.412 grams of ethanol/grams of added sugar"}, {"measurement": "Initial Growth (OD @ 24 h) OD", "setting": "0.5 + 0.5 g/L (start, 8 h)", "result": 2.74, "unit": "OD"}, {"measurement": "Maximum Cell Density OD", "setting": "0.5 + 0.5 g/L (start, 8 h)", "result": 3.09, "unit": "OD"}, {"measurement": "Volumetric Productivity Average", "setting": "0.5 + 0.5 g/L (start, 8 h)", "result": "0.417 grams ethanol/(liter)(hour)"}, {"measurement": "Volumetric Productivity Maximum", "setting": "0.5 + 0.5 g/L (start, 8 h)", "result": "0.659 grams ethanol/(liter)(hour)"}, {"measurement": "Ethanol Production Maximum", "setting": "0.5 g/L at start", "result": 39.95, "unit": "g/L"}, {"measurement": "Ethanol yield", "setting": "0.5 g/L at start", "result": "0.411 grams of ethanol/grams of added sugar"}, {"measurement": "Initial Growth (OD @ 24 h) OD", "setting": "0.5 g/L at start", "result": 2.77, "unit": "OD"}, {"measurement": "Maximum Cell Density OD", "setting": "0.5 g/L at start", "result": 2.96, "unit": "OD"}, {"measurement": "Volumetric Productivity Average", "setting": "0.5 g/L at start", "result": "0.416 grams ethanol/(liter)(hour)"}, {"measurement": "Volumetric Productivity Maximum", "setting": "0.5 g/L at start", "result": "0.615 grams ethanol/(liter)(hour)"}, {"measurement": "Ethanol Production Maximum", "setting": "0.75 g/L at start", "result": 43.44, "unit": "g/L"}, {"measurement": "Ethanol yield", "setting": "0.75 g/L at start", "result": "0.447 grams of ethanol/grams of added sugar"}, {"measurement": "Initial Growth (OD @ 24 h) OD", "setting": "0.75 g/L at start", "result": 2.47, "unit": "OD"}, {"measurement": "Maximum Cell Density OD", "setting": "0.75 g/L at start", "result": 2.81, "unit": "OD"}, {"measurement": "Volumetric Productivity Average", "setting": "0.75 g/L at start", "result": "0.452 grams ethanol/(liter)(hour)"}, {"measurement": "Volumetric Productivity Maximum", "setting": "0.75 g/L at start", "result": "0.699 grams ethanol/(liter)(hour)"}, {"measurement": "activity at 500 µg/mL", "setting": "8 h, read-out: Ethanol Production Maximum % Control, 1% CSL+glucose, 0.5 + 0.25 g/L (start, 8 h)", "result": 109, "unit": "%"}, {"measurement": "activity at 500 µg/mL", "setting": "8 h, read-out: Ethanol Production Maximum % Control, 1% CSL+glucose, 0.5 + 0.5 g/L (start, 8 h)", "result": 108, "unit": "%"}, {"measurement": "activity at 500 µg/mL", "setting": "8 h, read-out: Maximum Cell Density % Control, 1% CSL+glucose, 0.5 + 0.25 g/L (start, 8 h)", "result": 111, "unit": "%"}, {"measurement": "activity at 500 µg/mL", "setting": "8 h, read-out: Maximum Cell Density % Control, 1% CSL+glucose, 0.5 + 0.5 g/L (start, 8 h)", "result": 115, "unit": "%"}, {"measurement": "activity at 500 µg/mL", "setting": "8 h, read-out: Volumetric Productivity Average % Control, 1% CSL+glucose, 0.5 + 0.25 g/L (start, 8 h)", "result": 109, "unit": "%"}, {"measurement": "activity at 500 µg/mL", "setting": "8 h, read-out: Volumetric Productivity Average % Control, 1% CSL+glucose, 0.5 + 0.5 g/L (start, 8 h)", "result": 108, "unit": "%"}, {"measurement": "activity at 500 µg/mL", "setting": "8 h, read-out: Volumetric Productivity Maximum % Control, 1% CSL+glucose, 0.5 + 0.25 g/L (start, 8 h)", "result": 116, "unit": "%"}, {"measurement": "activity at 500 µg/mL", "setting": "8 h, read-out: Volumetric Productivity Maximum % Control, 1% CSL+glucose, 0.5 + 0.5 g/L (start, 8 h)", "result": 128, "unit": "%"}, {"measurement": "activity at 250 µg/mL", "setting": "24 h, read-out: Initial Growth (OD @ 24 h) % Control, 1% CSL+glucose, 0.25 g/L at start", "result": 112, "unit": "%"}, {"measurement": "activity at 500 µg/mL", "setting": "24 h, read-out: Initial Growth (OD @ 24 h) % Control, 1% CSL+glucose, 0.5 + 0.25 g/L (start, 8 h)", "result": 98.9, "unit": "%"}, {"measurement": "activity at 500 µg/mL", "setting": "24 h, read-out: Initial Growth (OD @ 24 h) % Control, 1% CSL+glucose, 0.5 + 0.5 g/L (start, 8 h)", "result": 103, "unit": "%"}, {"measurement": "activity at 500 µg/mL", "setting": "24 h, read-out: Initial Growth (OD @ 24 h) % Control, 1% CSL+glucose, 0.5 g/L at start", "result": 104, "unit": "%"}, {"measurement": "activity at 750 µg/mL", "setting": "24 h, read-out: Initial Growth (OD @ 24 h) % Control, 1% CSL+glucose, 0.75 g/L at start", "result": 92.5, "unit": "%"}, {"measurement": "activity at 250 µg/mL", "setting": "read-out: Ethanol Production Maximum % Control, 1% CSL+glucose, 0.25 g/L at start", "result": 109, "unit": "%"}, {"measurement": "activity at 500 µg/mL", "setting": "read-out: Ethanol Production Maximum % Control, 1% CSL+glucose, 0.5 g/L at start", "result": 108, "unit": "%"}, {"measurement": "activity at 750 µg/mL", "setting": "read-out: Ethanol Production Maximum % Control, 1% CSL+glucose, 0.75 g/L at start", "result": 117, "unit": "%"}, {"measurement": "activity at 250 µg/mL", "setting": "read-out: Maximum Cell Density % Control, 1% CSL+glucose, 0.25 g/L at start", "result": 118, "unit": "%"}, {"measurement": "activity at 500 µg/mL", "setting": "read-out: Maximum Cell Density % Control, 1% CSL+glucose, 0.5 g/L at start", "result": 110, "unit": "%"}, {"measurement": "activity at 750 µg/mL", "setting": "read-out: Maximum Cell Density % Control, 1% CSL+glucose, 0.75 g/L at start", "result": 105, "unit": "%"}, {"measurement": "activity at 250 µg/mL", "setting": "read-out: Volumetric Productivity Average % Control, 1% CSL+glucose, 0.25 g/L at start", "result": 145, "unit": "%"}, {"measurement": "activity at 500 µg/mL", "setting": "read-out: Volumetric Productivity Average % Control, 1% CSL+glucose, 0.5 g/L at start", "result": 108, "unit": "%"}, {"measurement": "activity at 750 µg/mL", "setting": "read-out: Volumetric Productivity Average % Control, 1% CSL+glucose, 0.75 g/L at start", "result": 117, "unit": "%"}, {"measurement": "activity at 250 µg/mL", "setting": "read-out: Volumetric Productivity Maximum % Control, 1% CSL+glucose, 0.25 g/L at start", "result": 132, "unit": "%"}, {"measurement": "activity at 500 µg/mL", "setting": "read-out: Volumetric Productivity Maximum % Control, 1% CSL+glucose, 0.5 g/L at start", "result": 120, "unit": "%"}, {"measurement": "activity at 750 µg/mL", "setting": "read-out: Volumetric Productivity Maximum % Control, 1% CSL+glucose, 0.75 g/L at start", "result": 136, "unit": "%"}]}
